{"source": "patent US12473339B2", "about": "“Acylated glucagon analogues” (Zealand Pharma A/S, priority 2013, dated 2025)", "key": {"[1]": {"biological_target": "T1, human glucagon-like peptide 1 receptor (GLP-1R) (Homo sapiens, UniProt P43220)", "T1 construct": "expressed in transfected cells", "T1 sequence (P43220 24-463)": "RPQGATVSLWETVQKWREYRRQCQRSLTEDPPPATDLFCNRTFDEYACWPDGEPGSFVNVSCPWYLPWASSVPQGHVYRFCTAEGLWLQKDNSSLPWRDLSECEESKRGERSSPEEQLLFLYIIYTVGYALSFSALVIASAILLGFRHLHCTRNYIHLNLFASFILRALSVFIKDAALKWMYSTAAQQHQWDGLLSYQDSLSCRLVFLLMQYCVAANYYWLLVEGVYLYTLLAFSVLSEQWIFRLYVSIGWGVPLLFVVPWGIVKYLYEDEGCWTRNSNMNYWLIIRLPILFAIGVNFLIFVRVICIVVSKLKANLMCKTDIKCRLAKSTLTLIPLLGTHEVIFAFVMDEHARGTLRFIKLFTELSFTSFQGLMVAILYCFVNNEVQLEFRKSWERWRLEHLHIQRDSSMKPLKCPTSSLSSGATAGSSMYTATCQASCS", "test": "GLP-1 receptor efficacy assay (cAMP AlphaScreen, CHO cells)", "type": "cell-based", "settings": "for Ratio GLP-1/Glucagon: EC50 [GLP-1R] / EC50 [Glucagon-R], human receptors in CHO-K1; for EC50: cAMP formation, CHO cells expressing human GLP-1-R, 15 min, read-out: EC50 hGLP-1R CHO-K1", "text": "(§1) The cDNA encoding either the human glucagon receptor (Glucagon-R) (primary accession number P47871) or the human glucagon-like peptide 1 receptor (GLP-1R) (primary accession number P43220) were synthesized and cloned into a mammalian expression vector containing a Zeocin resistance marker.\n(§2) The mammalian expression vectors encoding the Glucagon-R or the GLP-1-R were transfected into Chinese hamster ovary (CHO) cells by the Attractene method. Stably expressing clones were obtained by Zeocin selection (250 μg/mL) upon limited dilution of cells resistant to the selection pressure. Glucagon-R and GLP-1-R cell clones expressing were picked, propagated and tested in the Glucagon-R and GLP-1-R efficacy assays as described below. One Glucagon-R expressing clone and one GLP-1-R expressing clone were chosen for compound profiling.\n(§3) CHO cells expressing the human Glucagon-R, or human GLP-1-R were seeded 24 hours prior to the assay at 30,000 cells per well in 96-well microtiter plates in culture in 100 μl growth medium. On the day of analysis, growth medium was removed and the cells were washed once with 200 μl of assay buffer (Krebs-Ringer-buffer—KRBH). The buffer was removed and the cells were incubated for 15 min at room temperature in 10 μl KRBH (KRBH+10 mM HEPES, 5 mM NaHCO3, 0.1% (V/V) BSA) with 0.1 mM IBMX in deionized water containing increasing concentrations of test peptides. The reaction was stopped by the addition of lysis buffer (0.1% w/v BSA, 5 mM HEPES, 0.3% v/v Tween-20). After cell lysis for 10 min at room temperature, lysates were transferred to 384-well plates and 10 μl of acceptor/donorbead mixture as contained in the AlphaScreen™ cAMP Functional Assay Kit was added. After one hour of incubation at room temperature in the dark, the cAMP content was determined applying the AlphaScreen™ cAMP Functional Assay Kit from Perkin-Elmer according to manufacturer instructions. EC50 and relative efficacies compared to reference compounds (glucagon and GLP-1) were calculated applying computer aided curve fitting. The GLP-1/glucagon ratio is calculated as defined earlier."}, "[2]": {"biological_target": "T2, human glucagon receptor (Glucagon-R) (Homo sapiens, UniProt P47871)", "T2 construct": "expressed in transfected cells", "T2 sequence (P47871 26-477)": "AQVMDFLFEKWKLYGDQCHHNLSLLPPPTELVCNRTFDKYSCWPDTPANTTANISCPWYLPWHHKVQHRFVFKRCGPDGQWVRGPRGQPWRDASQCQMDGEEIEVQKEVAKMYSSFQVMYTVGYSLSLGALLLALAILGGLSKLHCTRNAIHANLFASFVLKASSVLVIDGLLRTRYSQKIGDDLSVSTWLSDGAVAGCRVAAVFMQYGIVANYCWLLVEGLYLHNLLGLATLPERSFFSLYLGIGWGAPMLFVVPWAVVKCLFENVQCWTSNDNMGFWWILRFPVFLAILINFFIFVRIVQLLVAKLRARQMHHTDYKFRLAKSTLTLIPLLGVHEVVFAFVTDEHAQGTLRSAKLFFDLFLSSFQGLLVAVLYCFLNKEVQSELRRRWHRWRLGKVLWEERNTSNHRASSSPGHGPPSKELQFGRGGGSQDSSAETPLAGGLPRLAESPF", "test": "Glucagon receptor efficacy assay (cAMP AlphaScreen, CHO cells)", "type": "cell-based", "settings": "cAMP formation, CHO cells expressing human Glucagon-R, 15 min; read-out: EC50 hGCGR CHO-K1", "text": "as §1, §2, §3"}, "[3]": {"test": "Pharmacokinetic parameters after intravenous administration to rats", "settings": "male, Han/Wistar, rat, in vivo, 20 nmol/kg", "description": "Pharmacokinetic parameters of the test compounds were determined after intravenous administration to Han/Wistar rats. The acylated GLP-1 analogue semaglutide was also tested for comparison purposes. Male Wistar rats were obtained from Charles River (Germany) weighing approximately 180 to 210 g at time of arrival at the test facility. Rats were caged in European standard rat cages type IV with light cycle of 12-hour dark and 12-hour light. During the study rats were housed in standard rat cages type III. Both diet Altromin 1324 (Altromin, Germany) and water was administered ad libitum during the whole experimental period. The animals were housed in the test facility for at least 4 days in order to assure proper acclimatization. The compounds were first dissolved in 0.1% aqueous ammonia to a nominal concentration of 2 mg/ml, and then diluted to the desired dosing strength (10 μM) in sterile PBS containing 25 mM phosphate buffer, pH 7.4. Intravenous injections corresponding to 20 nmol/kg were given via a lateral tail vein. Blood samples (200 μl) were collected from the periorbital plexus at time points 0.08, 0.25, 0.5, 1, 2, 4, 8, 24, 32 and 48 h post dosing into K3EDTA tubes and centrifuged for 5 minutes at 4° C. within 20 minutes of sampling. […] Individual plasma concentration-time profiles were analysed by a non-compartmental approach using ToxKin™ version 3.2 (Unilog IT Services), and the resulting pharmacokinetic parameters were determined."}}, "note": "*1 amine or outer side, *2 acyl side, *3 side chain or, on linkers, in order; H or OH if unused. Where a SMILES comes first, the peptide text is derived from it. Side-chain parts run from the residue outwards. [ ]: non-standard residue; d: D form. The star is where a group is joined. C18 diacid = O=C(O)CCCCCCCCCCCCCCCCC(=O)*; γGlu = O=C(O)[C@H](CCC(=O)[*:2])N[*:1]; Ac4c = NC1(C(=O)O)CCC1; AEEA = NCCOCCOCC(=O)O", "data": [{"compound": "CC[C@H](C)[C@H](NC(=O)[C@H](Cc1ccccc1)NC(=O)[C@H](CC(=O)O)NC(=O)[C@H](CCCCN)NC(=O)[C@H](C)NC(=O)[C@H](CCCNC(=N)N)NC(=O)[C@H](CCCCNC(=O)CC[C@H](NC(=O)CCCCCCCCCCCCCCCCC(=O)O)C(=O)O)NC(=O)[C@H](CCC(=O)O)NC(=O)[C@H](CC(=O)O)NC(=O)[C@H](CC(C)C)NC(=O)[C@H](Cc1ccc(O)cc1)NC(=O)[C@H](CCCCN)NC(=O)[C@H](CO)NC(=O)[C@H](Cc1ccc(O)cc1)NC(=O)[C@H](CC(=O)O)NC(=O)[C@H](CO)NC(=O)[C@@H](NC(=O)[C@H](Cc1ccccc1)NC(=O)[C@@H](NC(=O)CNC(=O)[C@H](CCC(N)=O)NC(=O)C1(NC(=O)[C@@H](N)Cc2c[nH]cn2)CCC1)[C@@H](C)O)[C@@H](C)O)C(=O)N[C@@H](CCC(=O)O)C(=O)N[C@@H](Cc1c[nH]c2ccccc12)C(=O)N[C@@H](CC(C)C)C(=O)N[C@@H](CCC(=O)O)C(=O)N[C@@H](CO)C(=O)N[C@@H](C)C(N)=O", "note": "[Compound 12, H-H-Ac4c-QGTFTSDYSKYLDE-K([17-carboxy-heptadecanoyl]-isoGlu)-RAKDFIEWLESA-NH2] (H-H[Ac4c]QGTFTSDYSKYLDEK([γGlu-C18 diacid])RAKDFIEWLESA-NH2)", "values": [{"measurement": "Ratio GLP-1/Glucagon", "setting": "[1]", "result": 6.86}, {"measurement": "EC50", "setting": "[2]", "result": 0.07, "unit": "nM"}]}, {"compound": "CC[C@H](C)[C@H](NC(=O)[C@H](Cc1ccccc1)NC(=O)[C@H](CC(=O)O)NC(=O)[C@H](CCCCN)NC(=O)[C@H](C)NC(=O)[C@H](C)NC(=O)[C@H](CCCNC(=N)N)NC(=O)[C@H](CCCCNC(=O)CNC(=O)CNC(=O)[C@H](CO)NC(=O)CNC(=O)[C@H](CO)NC(=O)CNC(=O)CC[C@H](NC(=O)CCCCCCCCCCCCCCCCC(=O)O)C(=O)O)NC(=O)[C@H](CC(=O)O)NC(=O)[C@H](CC(C)C)NC(=O)[C@H](Cc1ccc(O)cc1)NC(=O)[C@H](CCCCN)NC(=O)[C@H](CO)NC(=O)[C@H](Cc1ccc(O)cc1)NC(=O)[C@H](CC(=O)O)NC(=O)[C@H](CO)NC(=O)[C@@H](NC(=O)[C@H](Cc1ccccc1)NC(=O)[C@@H](NC(=O)CNC(=O)[C@H](CCC(N)=O)NC(=O)C(C)(C)NC(=O)[C@@H](N)Cc1c[nH]cn1)[C@@H](C)O)[C@@H](C)O)C(=O)N[C@@H](CCC(=O)O)C(=O)N[C@@H](Cc1c[nH]c2ccccc12)C(=O)N[C@@H](CC(C)C)C(=O)N[C@@H](CCC(=O)O)C(=O)N[C@@H](CO)C(=O)N[C@@H](C)C(N)=O", "note": "[Compound 5, H-H-Aib-QGTFTSDYSKYLD-K([17-carboxy-heptadecanoyl]-isoGlu-GSGSGG)-RAAKDFIEWLESA-NH2]", "values": [{"measurement": "Ratio GLP-1/Glucagon", "setting": "[1]", "result": 4.61}, {"measurement": "EC50", "setting": "[2]", "result": 0.18, "unit": "nM"}]}, {"compound": "CC[C@H](C)[C@H](NC(=O)[C@H](Cc1ccccc1)NC(=O)[C@H](CC(=O)O)NC(=O)[C@H](CCCCN)NC(=O)[C@H](C)NC(=O)[C@H](C)NC(=O)[C@H](CCCNC(=N)N)NC(=O)[C@H](CCC(=O)O)NC(=O)[C@H](CC(=O)O)NC(=O)[C@H](CC(C)C)NC(=O)[C@H](Cc1ccc(O)cc1)NC(=O)[C@H](CCCCN)NC(=O)[C@H](CO)NC(=O)[C@H](Cc1ccc(O)cc1)NC(=O)[C@H](CC(=O)O)NC(=O)[C@H](CO)NC(=O)[C@@H](NC(=O)[C@H](Cc1ccccc1)NC(=O)[C@@H](NC(=O)CNC(=O)[C@H](CCC(N)=O)NC(=O)C(C)(C)NC(=O)[C@@H](N)Cc1c[nH]cn1)[C@@H](C)O)[C@@H](C)O)C(=O)N[C@@H](CCCCNC(=O)CNC(=O)CNC(=O)[C@H](CO)NC(=O)CNC(=O)[C@H](CO)NC(=O)CNC(=O)CC[C@H](NC(=O)CCCCCCCCCCCCCCCCC(=O)O)C(=O)O)C(=O)N[C@@H](Cc1c[nH]c2ccccc12)C(=O)N[C@@H](CC(C)C)C(=O)N[C@@H](CCC(=O)O)C(=O)N[C@@H](CO)C(=O)N[C@@H](C)C(N)=O", "note": "[Compound 3]", "values": [{"measurement": "Ratio GLP-1/Glucagon", "setting": "[1]", "result": 0.47}, {"measurement": "EC50", "setting": "[1]", "result": 0.7, "unit": "nM"}, {"measurement": "MRT", "setting": "[3]", "result": 28.7, "unit": "h"}, {"measurement": "clearance", "setting": "[3]", "result": 3.36, "unit": "mL/h/kg"}, {"measurement": "half-life", "setting": "[3]", "result": 23.4, "unit": "h"}]}, {"compound": "CC[C@H](C)[C@H](NC(=O)[C@H](Cc1ccccc1)NC(=O)[C@H](CC(=O)O)NC(=O)[C@H](CCCCN)NC(=O)[C@H](C)NC(=O)[C@H](CCCNC(=N)N)NC(=O)[C@H](CCCCNC(=O)COCCOCCNC(=O)COCCOCCNC(=O)CC[C@H](NC(=O)CCCCCCCCCCCCCCCCC(=O)O)C(=O)O)NC(=O)[C@H](CCC(=O)O)NC(=O)[C@H](CC(=O)O)NC(=O)[C@H](CC(C)C)NC(=O)[C@H](Cc1ccc(O)cc1)NC(=O)[C@H](CCCCN)NC(=O)[C@H](CO)NC(=O)[C@H](Cc1ccc(O)cc1)NC(=O)[C@H](CC(=O)O)NC(=O)[C@H](CO)NC(=O)[C@@H](NC(=O)[C@H](Cc1ccccc1)NC(=O)[C@@H](NC(=O)CNC(=O)[C@H](CCC(N)=O)NC(=O)C1(NC(=O)[C@@H](N)Cc2c[nH]cn2)CCC1)[C@@H](C)O)[C@@H](C)O)C(=O)N[C@@H](CCC(=O)O)C(=O)N[C@@H](Cc1c[nH]c2ccccc12)C(=O)N[C@@H](CC(C)C)C(=O)N[C@@H](CCC(=O)O)C(=O)N[C@@H](CO)C(=O)N[C@@H](C)C(N)=O", "note": "[Compound 4, H-H-Ac4c-QGTFTSDYSKYLDE-K([17-carboxy-heptadecanoyl]-isoGlu-Peg3-Peg3)-RAKDFIEWLESA-NH2] (H-H[Ac4c]QGTFTSDYSKYLDEK([AEEA-AEEA-γGlu-C18 diacid])RAKDFIEWLESA-NH2)", "values": [{"measurement": "Ratio GLP-1/Glucagon", "setting": "[1]", "result": 1.56}, {"measurement": "EC50", "setting": "[1]", "result": 0.7, "unit": "nM"}, {"measurement": "MRT", "setting": "[3]", "result": 17.6, "unit": "h"}, {"measurement": "clearance", "setting": "[3]", "result": 6.6, "unit": "mL/h/kg"}, {"measurement": "half-life", "setting": "[3]", "result": 13.7, "unit": "h"}]}]}
